Structures are written as SMILES. Peptide text beside a SMILES is read from it.

In US10961163B2, “Compositions and methods useful for enhancing the microbial conversion of nitrate into ammonium” (The Regents of the University of California, priority 2016, dated 2021) one finds Ammonium/OD ratio data, which are given here for 83 compounds.

For the first assay, the system named is microbial enrichment cultures. In words: Ammonium production normalized by growth (NH4+/OD ratio) of microbial enrichment cultivated on individual carbon sources.
Settings: not given
It is filed as cell-based.
Consider `N=C(N)NCCC[C@H](N)C(=O)O` [L-Arginine], for which the Ammonium/OD ratio stood at 1.79.

For `NCCCC[C@H](N)C(=O)O` [L-Lysine], the Ammonium/OD ratio is on record as 1.02.

With `O.O=C([O-])C[C@H](O)C(=O)[O-].[Na+].[Na+]` [L-Malic acid disodium salt monohydrate], the Ammonium/OD ratio was 1.43.

As to `N[C@@H](Cc1c[nH]c2ccccc12)C(=O)O` [L-Tryptophan], the Ammonium/OD ratio was determined as 1.23.

Consider `CC(=O)[O-].[K+]` [Potassium acetate], for which the Ammonium/OD ratio was determined as 0.98.

Take `O.O=C([O-])C(=O)[O-].[K+].[K+]` [Potassium oxalate monohydrate]: the Ammonium/OD ratio was 1.13.

On to `Cl.Cl.NCCCCN` [Putrescine Dihydrochloride], for which the Ammonium/OD ratio is reported as 1.20.

The same assay, now with this note: average of 8 independent cultures amended with varying concentrations of the carbon source; ammonium by colorimetric (Bertholet) assay, growth by OD 600.
As to `O=C(O)CC(O)C(=O)O` (racemic) [D,L-Malic Acid], the Ammonium/OD ratio was determined as 1.41.

Consider `NCC(=O)NC(CC(=O)O)C(=O)O` (racemic) [Gly-DL-Asp], for which the Ammonium/OD ratio is recorded as 1.17.

For the compound `CC(O)C(=O)[O-].[Na+]` (racemic) [Sodium D,L-Lactate], the Ammonium/OD ratio is given as 0.91.

Consider `O=CC[C@H](O)[C@H](O)CO` [2-Deoxy-D-Ribose], for which the Ammonium/OD ratio was 1.00.

On to `O=C(O)c1ccc(O)cc1` [4-Hydroxybenzoic Acid], for which the Ammonium/OD ratio came to 1.31.

On to `O=C(CO)[C@@H](O)[C@H](O)[C@@H](O)C(=O)[O-].[K+]` [5-Keto-D-Gluconic Acid potassium salt], for which the Ammonium/OD ratio was found to be 1.12.

`Cl.Nc1ncnc2nc[nH]c12.O` [Adenine hydrochloride hydrate]: the Ammonium/OD ratio is reported as 0.93.

For `Nc1ncnc2c1ncn2[C@@H]1O[C@H](CO)[C@@H](O)[C@H]1O` [Adenosine], the Ammonium/OD ratio stood at 1.25.

Consider `OC[C@H]1O[C@@H](O[C@H]2[C@H](O)[C@@H](O)[C@H](O)O[C@@H]2CO)[C@H](O)[C@@H](O)[C@H]1O` [Beta-Lactose], for which the Ammonium/OD ratio was 0.99.

As to `C[N+](C)(C)CC(O)CC(=O)[O-].Cl` (centres unmarked) [Carnitine Hydrochloride], the Ammonium/OD ratio is listed as 1.45.

`O=C(O)CC(O)(CC(=O)O)C(=O)O` [Citric Acid]: the Ammonium/OD ratio is listed as 1.65.

With `Nc1ccn([C@@H]2O[C@H](CO)[C@@H](O)[C@H]2O)c(=O)n1` [Cytidine], the Ammonium/OD ratio came out at 1.64.

With `Nc1cc[nH]c(=O)n1` [Cytosine], the Ammonium/OD ratio was 1.37.

Take `C[C@@H](N)C(=O)O` [D-Alanine]: the Ammonium/OD ratio turned out to be 1.08.

For `O=C[C@@H](O)[C@H](O)[C@H](O)CO` [D-Arabinose], the Ammonium/OD ratio worked out at 1.21.

As for `OC[C@H]1O[C@@H](O[C@H]2[C@H](O)[C@@H](O)[C@H](O)O[C@@H]2CO)[C@H](O)[C@@H](O)[C@@H]1O` [D-Cellobiose], the Ammonium/OD ratio came to 1.14.

On to `O=C(CO)[C@@H](O)[C@H](O)[C@H](O)CO` [D-Fructose], for which the Ammonium/OD ratio was 1.42.

Turning to `O=C[C@H](O)[C@@H](O)[C@@H](O)[C@H](O)CO` [D-Galactose], the Ammonium/OD ratio came out at 0.93.

For the compound `O.O=C[C@H](O)[C@@H](O)[C@@H](O)[C@H](O)C(=O)O` [D-Galacturonic Acid monohydrate], the Ammonium/OD ratio worked out at 0.92.

On to `O=C([O-])[C@H](O)[C@@H](O)[C@H](O)[C@H](O)CO.[Na+]` [D-Gluconic Acid sodium salt], for which the Ammonium/OD ratio is listed as 1.19.

For the compound `Cl.N[C@H]1C(O)O[C@H](CO)[C@@H](O)[C@@H]1O` (stereo partly drawn) [D-Glucosamine Hydrochloride], the Ammonium/OD ratio worked out at 1.16.

Take `O=C[C@H](O)[C@@H](O)[C@H](O)[C@H](O)COP(=O)([O-])[O-].[Na+].[Na+]` [D-Glucose-6-Phosphate sodium salt]: the Ammonium/OD ratio came to 0.99.

For the compound `O=C[C@H](O)[C@@H](O)[C@H](O)[C@H](O)CO` [D-Glucose], the Ammonium/OD ratio was 1.33.

In the case of `O=C[C@H](O)[C@@H](O)[C@H](O)[C@H](O)C(=O)O` [D-Glucuronic Acid], the Ammonium/OD ratio is on record as 1.02.

As for `OC[C@H]1O[C@H](O[C@H]2[C@H](O)[C@@H](O)[C@H](O)O[C@@H]2CO)[C@H](O)[C@@H](O)[C@@H]1O` [D-Maltose monohydrate], the Ammonium/OD ratio is recorded as 0.94.

For `OC[C@@H](O)[C@@H](O)[C@H](O)[C@H](O)CO` [D-Mannitol], the Ammonium/OD ratio was 0.90.

In the case of `O=C[C@@H](O)[C@@H](O)[C@H](O)[C@H](O)CO` [D-Mannose], the Ammonium/OD ratio was found to be 0.96.

For the compound `O.O.O.O.O.OC[C@H]1O[C@H](OC[C@H]2O[C@H](O[C@]3(CO)O[C@H](CO)[C@@H](O)[C@@H]3O)[C@H](O)[C@@H](O)[C@@H]2O)[C@H](O)[C@@H](O)[C@H]1O` [D-Raffinose pentahydrate], the Ammonium/OD ratio turned out to be 1.03.

Turning to `O=C[C@H](O)[C@H](O)[C@H](O)CO` [D-Ribose], the Ammonium/OD ratio is reported as 1.36.

For the compound `N[C@H](CO)C(=O)O` [D-Serine], the Ammonium/OD ratio is given as 1.81.

In the case of `OC[C@@H](O)[C@@H](O)[C@H](O)[C@@H](O)CO` [D-Sorbitol], the Ammonium/OD ratio is recorded as 0.82.

In the case of `O=C(CO)[C@@H](O)[C@@H](O)[C@H](O)CO` [D-Tagatose], the Ammonium/OD ratio came out at 1.14.

As for `O.O.OC[C@H]1O[C@H](O[C@H]2O[C@H](CO)[C@@H](O)[C@H](O)[C@H]2O)[C@H](O)[C@@H](O)[C@@H]1O` [D-Trehalose dihydrate], the Ammonium/OD ratio amounted to 0.82.

For `O=C[C@H](O)[C@@H](O)[C@H](O)CO` [D-Xylose], the Ammonium/OD ratio was 1.06.

For the compound `CCO` [Ethanol], the Ammonium/OD ratio is on record as 0.91.

Turning to `NC(=O)[C@@H](O)[C@@H](O)[C@H](O)[C@@H](O)C=O` [Glucuronamide], the Ammonium/OD ratio is recorded as 1.38.

Take `NCC(=O)N[C@@H](CCC(=O)O)C(=O)O` [Gly-Glu] (H-Gly-Glu-OH): the Ammonium/OD ratio worked out at 1.12.

For the compound `OCC(O)CO` [Glycerol], the Ammonium/OD ratio was found to be 1.19.

Take `NCC(=O)O` [Glycine]: the Ammonium/OD ratio was 0.94.

In the case of `O=C(O)CO` [Glycolic Acid], the Ammonium/OD ratio is 1.01.

Consider `OC[C@H]1O[C@@H](n2cnc3c(O)ncnc32)[C@H](O)[C@@H]1O` [Inosine], for which the Ammonium/OD ratio was found to be 1.44.

For the compound `C=C(CC(=O)O)C(=O)O` [Itaconic Acid], the Ammonium/OD ratio is given as 1.40.

Consider `C[C@H](N)C(=O)O` [L-Alanine], for which the Ammonium/OD ratio is 1.45.

For `O=C[C@H](O)[C@@H](O)[C@@H](O)CO` [L-Arabinose], the Ammonium/OD ratio turned out to be 1.70.

With `NC(=O)C[C@H](N)C(=O)O` [L-Asparagine], the Ammonium/OD ratio is on record as 1.16.

As for `N[C@@H](CC(=O)O)C(=O)O` [L-Aspartic Acid], the Ammonium/OD ratio worked out at 1.24.

Turning to `NC(=O)NCCC[C@H](N)C(=O)O` [L-Citrulline], the Ammonium/OD ratio is given as 1.46.

With `Cl.N[C@@H](CS)C(=O)O.O` [L-Cysteine hydrochloride monohydrate], the Ammonium/OD ratio is recorded as 1.00.

Take `C[C@H](O)[C@@H](O)[C@@H](O)[C@H](O)C=O` [L-Fucose]: the Ammonium/OD ratio is recorded as 1.06.

Regarding `N[C@@H](CCC(=O)O)C(=O)[O-].O.[K+]` [L-Glutamic acid monopotassium salt monohydrate], the Ammonium/OD ratio is listed as 0.98.

With `NC(=O)CC[C@H](N)C(=O)O` [L-Glutamine], the Ammonium/OD ratio was determined as 1.28.

As to `N[C@@H](Cc1c[nH]cn1)C(=O)O` [L-Histidine], the Ammonium/OD ratio is listed as 1.10.

Turning to `CC[C@H](C)[C@H](N)C(=O)O` [L-Isoleucine], the Ammonium/OD ratio was 1.13.

With `CC(C)C[C@H](N)C(=O)O` [L-Leucine], the Ammonium/OD ratio is 1.07.

`CSCC[C@H](N)C(=O)O` [L-Methionine]: the Ammonium/OD ratio is listed as 1.67.

On to `N[C@@H](Cc1ccccc1)C(=O)O` [L-Phenylalanine], for which the Ammonium/OD ratio was found to be 1.40.

As to `O=C(O)[C@@H]1CCCN1` [L-Proline], the Ammonium/OD ratio was 0.94.

`C[C@H](O)[C@H](O)[C@@H](O)[C@@H](O)C=O.O` [L-Rhamnose monohydrate]: the Ammonium/OD ratio was 1.09.

With `N[C@@H](CO)C(=O)O` [L-Serine], the Ammonium/OD ratio is given as 1.20.

As to `O=C(CO)[C@@H](O)[C@H](O)[C@@H](O)CO` [L-Sorbose], the Ammonium/OD ratio was 1.90.

For the compound `C[C@@H](O)[C@H](N)C(=O)O` [L-Threonine], the Ammonium/OD ratio came to 1.35.

In the case of `CC(C)[C@H](N)C(=O)O` [L-Valine], the Ammonium/OD ratio is on record as 0.94.

Consider `CC(=O)N[C@H]1C(O)O[C@H](CO)[C@@H](O)[C@@H]1O` (stereo partly drawn) [N-Acetyl-D-Glucosamine], for which the Ammonium/OD ratio was determined as 1.07.

On to `O=C1NC(=O)C(=O)N1` [Parabanic Acid], for which the Ammonium/OD ratio is 1.12.

Regarding `C[C@@H](O)C(=O)[O-].[Na+]` [Sodium D-Lactate], the Ammonium/OD ratio is 1.16.

In the case of `O=C[O-].[Na+]` [Sodium Formate], the Ammonium/OD ratio is 0.72.

`O=C([O-])/C=C/C(=O)[O-].[Na+].[Na+]` [Sodium Fumarate dibasic]: the Ammonium/OD ratio worked out at 0.81.

With `C[C@H](O)C(=O)[O-].[Na+]` [Sodium L-Lactate], the Ammonium/OD ratio is given as 1.35.

In the case of `CCCC(=O)[O-].[Na+]` [Sodium butyrate], the Ammonium/OD ratio worked out at 1.04.

For `CCCCCCCC(=O)[O-].[Na+]` [Sodium octanoate], the Ammonium/OD ratio is on record as 1.21.

As to `CCC(=O)[O-].[Na+]` [Sodium propionate], the Ammonium/OD ratio worked out at 0.94.

Take `CC(=O)C(=O)[O-].[Na+]` [Sodium pyruvate]: the Ammonium/OD ratio was found to be 0.96.

As to `O.O.O.O.O.O.O=C([O-])CCC(=O)[O-].[Na+].[Na+]` [Sodium succinate dibasic hexahydrate], the Ammonium/OD ratio was 1.03.

As to `OC[C@H]1O[C@@](CO)(O[C@H]2O[C@H](CO)[C@@H](O)[C@H](O)[C@H]2O)[C@@H](O)[C@@H]1O` [Sucrose], the Ammonium/OD ratio was determined as 1.07.

With `Cc1cn([C@H]2C[C@H](O)[C@@H](CO)O2)c(=O)[nH]c1=O` [Thymidine], the Ammonium/OD ratio stood at 1.06.

Regarding `Cc1c[nH]c(=O)[nH]c1=O` [Thymine], the Ammonium/OD ratio is on record as 1.13.
